We go through five compounds from ChEMBL document CHEMBL1201862, “PubChem BioAssay data set” (2004).

The target of one experiment is Aurora kinase B (Homo sapiens, UniProt Q96GD4). It is filed as functional.
Experiment [1] deals with Protein disulfide-isomerase (Homo sapiens, UniProt P07237). In words: PDI inhibitors, insulin aggregation turbidity, dose response, biochemical, absorbance, cherry-picked samples (AID 602350). Type of experiment: functional.
Experiment [2] concerns the target T1, Heat shock factor protein 1 (Mus musculus, UniProt P38532).
T1 sequence (P38532 whole entry): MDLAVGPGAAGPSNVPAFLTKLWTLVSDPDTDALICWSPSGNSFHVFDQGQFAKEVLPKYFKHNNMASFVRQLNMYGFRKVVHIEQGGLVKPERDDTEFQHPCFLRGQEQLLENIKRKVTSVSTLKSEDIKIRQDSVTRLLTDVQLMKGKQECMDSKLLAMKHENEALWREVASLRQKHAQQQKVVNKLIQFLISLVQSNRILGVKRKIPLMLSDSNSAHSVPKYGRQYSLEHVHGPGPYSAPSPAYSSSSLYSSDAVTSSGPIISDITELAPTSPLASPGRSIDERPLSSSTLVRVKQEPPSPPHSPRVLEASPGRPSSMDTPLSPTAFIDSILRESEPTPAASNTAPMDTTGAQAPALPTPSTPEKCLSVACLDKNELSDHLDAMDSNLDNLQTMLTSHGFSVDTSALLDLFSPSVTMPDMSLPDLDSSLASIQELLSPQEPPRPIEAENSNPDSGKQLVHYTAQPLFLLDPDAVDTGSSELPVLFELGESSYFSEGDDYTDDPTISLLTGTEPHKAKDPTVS
Nature of the experiment: inhibition of MG132-induced HSE-luciferase signal, confirmation, cell-based, NIH3T3, luminescence, dose retest (AID 2382).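 Further: NIH3T3 fibroblasts with HSF1-driven luciferase reporter stressed by proteasome inhibitor MG132; luminescence from HSF1-driven luciferase expression after 8 hours of MG132 stress.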 Type of experiment: functional.

Another experiment has as its target T2, Estrogen receptor (Homo sapiens, UniProt P03372).
T2 sequence (P03372 whole entry): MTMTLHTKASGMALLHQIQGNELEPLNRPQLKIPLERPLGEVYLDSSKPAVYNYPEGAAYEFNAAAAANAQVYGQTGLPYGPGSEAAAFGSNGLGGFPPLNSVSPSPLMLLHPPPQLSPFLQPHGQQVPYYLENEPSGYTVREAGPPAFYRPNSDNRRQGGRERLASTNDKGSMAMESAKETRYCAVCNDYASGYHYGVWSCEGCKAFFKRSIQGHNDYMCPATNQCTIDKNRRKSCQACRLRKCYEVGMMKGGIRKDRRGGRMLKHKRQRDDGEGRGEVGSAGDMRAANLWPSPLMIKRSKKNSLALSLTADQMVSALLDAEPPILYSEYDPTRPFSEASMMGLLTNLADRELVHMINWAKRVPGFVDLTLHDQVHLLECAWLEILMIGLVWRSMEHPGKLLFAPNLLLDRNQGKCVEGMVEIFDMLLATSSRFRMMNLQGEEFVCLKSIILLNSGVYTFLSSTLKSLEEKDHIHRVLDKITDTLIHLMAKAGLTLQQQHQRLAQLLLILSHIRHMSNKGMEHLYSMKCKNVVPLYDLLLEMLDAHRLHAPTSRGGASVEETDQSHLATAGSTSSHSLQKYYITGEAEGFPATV
Nature of the experiment: potentiators of ERα–SRC-1 coactivator binding, dose response, biochemical, TR-FRET, ERα LBD (AID 737).

The target of experiment [3] is Melanin-concentrating hormone receptor 1 (Homo sapiens, UniProt Q99705). In words: Late-stage fluorescence-based counterscreen for antagonists of the G-protein coupled receptor 7 (GPR7): cell-based dose response assay to identify antagonists of the melanin-concentrating hormone receptor 1 (MCHR1) Set 6. It is filed as functional.
Melanin-concentrating hormone receptor 1, sequence (Q99705 whole entry): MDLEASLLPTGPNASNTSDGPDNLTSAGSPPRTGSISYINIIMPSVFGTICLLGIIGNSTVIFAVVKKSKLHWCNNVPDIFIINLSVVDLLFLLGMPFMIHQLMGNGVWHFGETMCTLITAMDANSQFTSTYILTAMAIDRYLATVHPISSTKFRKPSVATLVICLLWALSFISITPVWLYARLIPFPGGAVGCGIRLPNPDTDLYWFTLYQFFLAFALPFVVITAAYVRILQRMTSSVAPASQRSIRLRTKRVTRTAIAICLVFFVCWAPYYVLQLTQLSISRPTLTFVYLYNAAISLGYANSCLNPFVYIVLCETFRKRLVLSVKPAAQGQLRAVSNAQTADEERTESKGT
The target of experiment [4] is T3, Neuropeptides B/W receptor type 1 (Homo sapiens, UniProt P48145).
T3 sequence (P48145 whole entry): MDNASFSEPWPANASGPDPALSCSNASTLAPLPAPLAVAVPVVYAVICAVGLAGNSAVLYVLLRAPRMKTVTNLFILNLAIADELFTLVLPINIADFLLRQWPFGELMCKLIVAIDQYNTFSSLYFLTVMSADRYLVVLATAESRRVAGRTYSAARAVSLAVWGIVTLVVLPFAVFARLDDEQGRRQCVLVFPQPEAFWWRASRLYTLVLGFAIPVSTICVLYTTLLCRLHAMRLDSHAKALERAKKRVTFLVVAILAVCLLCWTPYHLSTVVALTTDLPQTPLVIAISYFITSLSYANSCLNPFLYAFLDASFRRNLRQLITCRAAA
Nature of the experiment: GPR7 antagonist potency, late-stage follow-up, cell-based, fluorescence, dose response, set 6 (AID 588583). Type of experiment: functional.

Experiment [5] is described as follows: nonselective inhibitors of cellular cAMP signaling, dose response, counter-screen for MC4R biased antagonist project, cell-based, TR-FRET cAMP detection (AID 602305).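 Further: U2OS cells stimulated with forskolin near its EC80 as the cAMP inducer; potency is for inhibition of forskolin-stimulated cAMP signaling.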 Type of experiment: functional.
The target of the next experiment is Melanocortin receptor 4 (Homo sapiens, UniProt P32245). In words: MC4R antagonist potency on cAMP, dose response, cell-based, TR-FRET, biased antagonists (AID 602298).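 Further: antagonist potency against agonist-stimulated cAMP production.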 It is filed as functional.
Melanocortin receptor 4, sequence (P32245 whole entry): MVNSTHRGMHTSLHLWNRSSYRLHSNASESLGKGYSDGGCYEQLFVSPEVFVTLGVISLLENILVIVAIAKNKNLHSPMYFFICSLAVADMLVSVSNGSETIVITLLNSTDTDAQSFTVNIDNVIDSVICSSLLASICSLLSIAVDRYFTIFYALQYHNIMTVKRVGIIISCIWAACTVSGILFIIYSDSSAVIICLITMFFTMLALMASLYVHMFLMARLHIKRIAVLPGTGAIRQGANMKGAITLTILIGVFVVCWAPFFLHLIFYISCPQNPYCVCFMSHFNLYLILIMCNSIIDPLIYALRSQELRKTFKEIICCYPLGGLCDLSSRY
Experiment [6] deals with Streptococcus sp. 'group A'. In words: growth inhibition of control SK(-) GAS strain, dose response, counter-screen for streptokinase expression inhibitor project, luminescence, kanamycin, BacTiterGlo, confirmation (AID 1900). It is filed as functional, organism-based.
For experiment [7], the target named is 26S proteasome non-ATPase regulatory subunit 14 (Homo sapiens, UniProt O00487). Nature of the experiment: inhibition of proteasome subunit RPN11 – biochemical, fluorescence polarization, uHTS hits, confirmation (AID 602368). Type of experiment: functional.
26S proteasome non-ATPase regulatory subunit 14, sequence (O00487 whole entry): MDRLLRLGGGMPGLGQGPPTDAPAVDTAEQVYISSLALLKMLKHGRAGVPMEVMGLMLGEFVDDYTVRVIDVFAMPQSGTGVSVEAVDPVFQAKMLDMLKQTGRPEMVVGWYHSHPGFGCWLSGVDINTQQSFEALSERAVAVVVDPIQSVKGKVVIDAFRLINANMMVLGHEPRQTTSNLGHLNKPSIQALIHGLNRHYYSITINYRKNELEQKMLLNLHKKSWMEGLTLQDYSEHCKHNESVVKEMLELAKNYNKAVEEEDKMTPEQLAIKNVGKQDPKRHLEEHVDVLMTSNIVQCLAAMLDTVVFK
Experiment [8] has as its target 72 kDa type IV collagenase (Homo sapiens, UniProt P08253). Nature of the experiment: Dose Response validation of uHTS RPN11 inhibitor hits using a MMP-2 Fluorescence assay. Type of experiment: functional.
Another experiment deals with Streptococcus. Nature of the experiment: Group A Streptococcus viability loss, dose response, counter-screen for streptokinase expression inhibitor project, luminescence, BacTiterGlo (AID 1915).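 Further: potency for reduction of bacterial viability or growth.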 It is filed as functional, organism-based.
Another experiment deals with Prothrombin (Bos taurus, UniProt P00735). Nature of the experiment: thrombin inhibition, dose response, biochemical, fluorescence polarization, uHTS hits (AID 602369). It is filed as functional.
A further experiment has as its target T4, Streptokinase A (Streptococcus pyogenes serotype M1, UniProt P10520).
T4 sequence (P10520 whole entry): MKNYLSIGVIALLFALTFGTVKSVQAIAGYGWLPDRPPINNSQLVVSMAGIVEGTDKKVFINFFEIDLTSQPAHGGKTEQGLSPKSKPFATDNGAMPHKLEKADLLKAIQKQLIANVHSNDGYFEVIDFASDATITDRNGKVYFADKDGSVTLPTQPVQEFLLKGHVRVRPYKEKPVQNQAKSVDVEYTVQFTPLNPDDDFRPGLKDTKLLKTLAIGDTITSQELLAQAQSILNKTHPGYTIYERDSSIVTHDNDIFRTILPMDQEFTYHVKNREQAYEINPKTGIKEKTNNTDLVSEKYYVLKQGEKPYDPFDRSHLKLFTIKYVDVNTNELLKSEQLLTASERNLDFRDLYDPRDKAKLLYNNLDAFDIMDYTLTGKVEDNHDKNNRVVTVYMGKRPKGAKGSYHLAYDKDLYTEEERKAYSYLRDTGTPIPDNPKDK
In words: S. pyogenes streptokinase expression inhibitors, potency, dose response, plasminogen activation absorbance, OD405 (AID 1914).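 Further: secreted streptokinase activity via plasminogen activation per viability signal from cell pellet.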 Type of experiment: functional, Streptococcus pyogenes M1 GAS.

Active and inactive are the calls of the source. Some results are limits rather than exact numbers.

Protein disulfide-isomerase, sequence (P07237 whole entry): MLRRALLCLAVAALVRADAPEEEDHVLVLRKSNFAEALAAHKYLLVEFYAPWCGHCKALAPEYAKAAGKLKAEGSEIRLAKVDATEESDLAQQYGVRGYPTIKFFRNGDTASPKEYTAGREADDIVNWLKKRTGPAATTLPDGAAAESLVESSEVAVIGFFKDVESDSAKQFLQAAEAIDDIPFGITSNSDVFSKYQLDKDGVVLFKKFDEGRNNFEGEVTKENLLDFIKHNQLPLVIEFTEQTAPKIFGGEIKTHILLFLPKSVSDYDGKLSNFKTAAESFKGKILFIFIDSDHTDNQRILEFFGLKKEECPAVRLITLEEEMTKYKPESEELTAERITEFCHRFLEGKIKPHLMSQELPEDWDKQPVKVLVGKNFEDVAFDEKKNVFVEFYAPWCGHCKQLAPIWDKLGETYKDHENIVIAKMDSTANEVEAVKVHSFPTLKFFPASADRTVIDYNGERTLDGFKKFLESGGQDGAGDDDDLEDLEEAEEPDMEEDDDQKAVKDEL
72 kDa type IV collagenase, sequence (P08253 whole entry): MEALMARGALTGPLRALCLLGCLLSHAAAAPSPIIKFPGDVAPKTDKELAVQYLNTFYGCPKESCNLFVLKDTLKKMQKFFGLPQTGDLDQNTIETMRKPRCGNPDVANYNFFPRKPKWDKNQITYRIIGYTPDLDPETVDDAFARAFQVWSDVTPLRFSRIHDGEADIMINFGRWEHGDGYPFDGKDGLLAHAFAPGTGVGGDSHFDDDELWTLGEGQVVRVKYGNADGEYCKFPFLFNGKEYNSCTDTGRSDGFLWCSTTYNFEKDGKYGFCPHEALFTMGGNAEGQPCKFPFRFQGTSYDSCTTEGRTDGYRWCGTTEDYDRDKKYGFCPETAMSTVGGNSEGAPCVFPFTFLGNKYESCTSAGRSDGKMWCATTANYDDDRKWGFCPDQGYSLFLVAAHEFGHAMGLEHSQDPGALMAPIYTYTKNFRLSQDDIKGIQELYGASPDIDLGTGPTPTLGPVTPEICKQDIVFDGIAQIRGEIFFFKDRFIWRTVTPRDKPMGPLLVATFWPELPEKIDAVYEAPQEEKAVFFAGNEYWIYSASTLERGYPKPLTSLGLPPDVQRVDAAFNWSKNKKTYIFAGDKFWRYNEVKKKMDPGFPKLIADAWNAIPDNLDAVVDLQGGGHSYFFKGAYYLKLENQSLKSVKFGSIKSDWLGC
Aurora kinase B, sequence (Q96GD4 whole entry): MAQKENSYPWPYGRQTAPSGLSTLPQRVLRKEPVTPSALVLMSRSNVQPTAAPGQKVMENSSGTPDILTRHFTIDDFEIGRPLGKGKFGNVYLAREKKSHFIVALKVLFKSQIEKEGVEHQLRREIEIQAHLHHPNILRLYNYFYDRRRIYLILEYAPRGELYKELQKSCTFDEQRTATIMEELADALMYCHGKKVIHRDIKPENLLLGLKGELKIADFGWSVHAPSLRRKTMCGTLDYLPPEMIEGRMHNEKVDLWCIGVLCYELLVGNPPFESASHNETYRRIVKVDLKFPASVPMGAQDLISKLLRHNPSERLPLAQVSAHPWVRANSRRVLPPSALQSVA

Regarding `Cc1cccc(Nc2nccc(Nc3ccccc3C(=O)O)n2)c1`, at Aurora kinase B, the Ki is 0.00126 µM (active).

For `C[C@]12CC[C@@H]3c4ccc(O[C@@H]5O[C@H](C(=O)O)[C@@H](O)[C@H](O)[C@H]5O)cc4CC[C@H]3[C@@H]1C[C@@H](O)[C@@H]2O`, the AC50 in [1] is 15.7 µM (active). Also, the EC50 in experiment [2] was > 195 µM (not active); at Estrogen receptor it was 9.16 µM (active).

Regarding `N#CC(c1ccccn1)c1c(Br)cnn(Cc2cccc3ccccc23)c1=O` (centres undefined), the IC50 in [3] and in experiment [4] was 0.8 µM (active) in each case.

As to `CCOC(=O)c1cnc2ccc(OCC)cc2c1NCc1ccccc1`, the IC50 (in [5]; on Melanocortin receptor 4) was > 64.6 µM (inactive) in each case.

In the case of `O=C1NC(=S)N(C2CCCCC2)C(=O)/C1=C/NNC(=O)c1ccccc1`, the EC50 is 0.519 µM (active) in experiment [6], 8.22 µM (active) with Streptococcus and > 150 µM (not active) at Streptokinase A. Moreover, the IC50 in [7] is 40.3 µM (active); in experiment [8], > 100 µM (inactive); at Prothrombin, 36.1 µM (active).
